The numbers were not newly measured in patent US8062666B2 (priority 2001, dated 2011), which cites them from elsewhere.

Where two headings read alike, the source gives them in different places.

The conditions of data set [1]: 0.2 M sodium chloride.
The conditions of data set [2]: coated spheroid extended release dosage form of WO 99/22724, dissolution specification.

`COc1ccc(C(CN(C)C)C2(O)CCCCC2)cc1.Cl` (racemic) [Venlafaxine hydrochloride, (R/S)-1-[2-(dimethylamino)-1-(4-methoxyphenyl)-ethyl]cyclohexanol hydrochloride]: the “octanol:water partition coefficient” value in data set [1] is reported as 0.43. The “time at which peak blood plasma levels appeared” value (conventional release dosage forms (tablets)) was 2 to 4 h. Besides, where the note is “extended release dosage forms”, the “time for which plasma levels rose after administration (time to peak)” value is listed as “five to eight”. Further, the “Average % venlafaxine HCL release” value in data set [2] (2 hrs) was below 30%; in data set [2] (4 hrs), 30-55%; in data set [2] (8 hrs), 55-80%; in data set [2] (12 hrs), 65-90%; in data set [2] (24 hrs), above 80%.
